The source made the active and inactive calls. The rule behind the calls is not given here.
Tested on: CCRIS mutagenicity, Ames/micronucleus/aberration tests
Assay: CCRIS mutagenicity studies
[1] = Test System: AMES SALMONELLA TYPHIMURIUM, Strain/Indicator: TA98, Metabolic Activation: NONE, Method: PREINCUBATION
[2] = Test System: AMES SALMONELLA TYPHIMURIUM, Strain/Indicator: TA98, Metabolic Activation: RAT, LIVER, S-9, PCB, Method: PREINCUBATION
[3] = Test System: AMES SALMONELLA TYPHIMURIUM, Strain/Indicator: TA100, Metabolic Activation: NONE, Method: FLUCTUATION TEST
[4] = Test System: AMES SALMONELLA TYPHIMURIUM, Strain/Indicator: TA98, Metabolic Activation: NONE, Method: STANDARD PLATE
[5] = Test System: AMES SALMONELLA TYPHIMURIUM, Strain/Indicator: TA100, Metabolic Activation: NONE, Method: STANDARD PLATE
[6] = Test System: AMES SALMONELLA TYPHIMURIUM, Strain/Indicator: TA100, Metabolic Activation: RAT, LIVER, S-9, AROCLOR 1254, Method: STANDARD PLATE
[7] = Test System: AMES SALMONELLA TYPHIMURIUM, Strain/Indicator: TA1535, Metabolic Activation: NONE, Method: STANDARD PLATE
[8] = Test System: AMES SALMONELLA TYPHIMURIUM, Strain/Indicator: TA100, Metabolic Activation: NONE, Method: PREINCUBATION

`C[C@H](CCC(=O)O)[C@H]1CC[C@H]2[C@@H]3CC[C@@H]4C[C@@H](O)CC[C@]4(C)[C@H]3C[C@H](O)[C@]12C` was tested, and the mutagenic call (Test System: AMES SALMONELLA TYPHIMURIUM, Strain/Indicator: TA98, Metabolic Activation: NONE, Method: FLUCTUATION TEST) was “inactive; negative”, the mutagenic call [1] was “inactive; negative” and the mutagenic call [2] was “inactive; negative”. The mutagenic call [3] was “inactive; negative”.
For `Nc1c(C(=O)O)cc([N+](=O)[O-])c2c1C(=O)c1ccccc1C2=O`, the mutagenic call [4] was “active; positive”, the mutagenic call (Test System: AMES SALMONELLA TYPHIMURIUM, Strain/Indicator: TA98, Metabolic Activation: RAT, LIVER, S-9, AROCLOR 1254, Method: STANDARD PLATE) was “active; positive” and the mutagenic call [5] was “active; positive”. For the same compound, the mutagenic call [6] was “active; positive”, the mutagenic call [7] was “inactive; negative” and the mutagenic call (Test System: AMES SALMONELLA TYPHIMURIUM, Strain/Indicator: TA1537, Metabolic Activation: NONE, Method: STANDARD PLATE) was “active; positive”. For the same compound, the mutagenic call (Test System: AMES SALMONELLA TYPHIMURIUM, Strain/Indicator: TA1537, Metabolic Activation: RAT, LIVER, S-9, AROCLOR 1254, Method: STANDARD PLATE) was “active; positive”, the mutagenic call (Test System: AMES SALMONELLA TYPHIMURIUM, Strain/Indicator: TA1538, Metabolic Activation: NONE, Method: STANDARD PLATE) was “active; positive” and the mutagenic call (Test System: AMES SALMONELLA TYPHIMURIUM, Strain/Indicator: TA1538, Metabolic Activation: RAT, LIVER, S-9, AROCLOR 1254, Method: STANDARD PLATE) was “active; positive”. For the same compound, the mutagenic call (Test System: AMES SALMONELLA TYPHIMURIUM, Strain/Indicator: TA1978, Metabolic Activation: NONE, Method: STANDARD PLATE) was “active; positive”.
In the case of `CCC(Cl)C(Cl)C(Cl)CC(Cl)C(Cl)C(C)Cl` (stereo not given), the mutagenic call (Test System: AMES SALMONELLA TYPHIMURIUM, Strain/Indicator: TA97, Metabolic Activation: HAMSTER, LIVER, S-9, AROCLOR 1254, Method: PREINCUBATION) is reported as “inactive; negative”, the mutagenic call (Test System: AMES SALMONELLA TYPHIMURIUM, Strain/Indicator: TA97, Metabolic Activation: NONE, Method: PREINCUBATION) is reported as “inactive; negative” and the mutagenic call (Test System: AMES SALMONELLA TYPHIMURIUM, Strain/Indicator: TA97, Metabolic Activation: RAT, LIVER, S-9, AROCLOR 1254, Method: PREINCUBATION) is reported as “inactive; negative”. The mutagenic call (Test System: AMES SALMONELLA TYPHIMURIUM, Strain/Indicator: TA98, Metabolic Activation: HAMSTER, LIVER, S-9, AROCLOR 1254 (10%), Method: PREINCUBATION) was “inactive; negative”, the mutagenic call (Test System: AMES SALMONELLA TYPHIMURIUM, Strain/Indicator: TA98, Metabolic Activation: HAMSTER, LIVER, S-9, AROCLOR 1254, Method: PREINCUBATION) was “inactive; negative” and the mutagenic call [1] was “inactive; negative”. The mutagenic call (Test System: AMES SALMONELLA TYPHIMURIUM, Strain/Indicator: TA98, Metabolic Activation: RAT, LIVER, S-9, AROCLOR 1254 (10%), Method: PREINCUBATION) was “inactive; negative”, the mutagenic call (Test System: AMES SALMONELLA TYPHIMURIUM, Strain/Indicator: TA98, Metabolic Activation: RAT, LIVER, S-9, AROCLOR 1254, Method: PREINCUBATION) was “inactive; negative” and the mutagenic call (Test System: AMES SALMONELLA TYPHIMURIUM, Strain/Indicator: TA100, Metabolic Activation: HAMSTER, LIVER, S-9, AROCLOR 1254 (10%), Method: PREINCUBATION) was “inactive; negative”. For the same compound, the mutagenic call (Test System: AMES SALMONELLA TYPHIMURIUM, Strain/Indicator: TA100, Metabolic Activation: HAMSTER, LIVER, S-9, AROCLOR 1254, Method: PREINCUBATION) was “inactive; negative”, the mutagenic call [8] was “inactive; negative” and the mutagenic call (Test System: AMES SALMONELLA TYPHIMURIUM, Strain/Indicator: TA100, Metabolic Activation: RAT, LIVER, S-9, AROCLOR 1254 (10%), Method: PREINCUBATION) was “inactive; negative”. For the same compound, the mutagenic call (Test System: AMES SALMONELLA TYPHIMURIUM, Strain/Indicator: TA100, Metabolic Activation: RAT, LIVER, S-9, AROCLOR 1254, Method: PREINCUBATION) was “inactive; negative”, the mutagenic call (Test System: AMES SALMONELLA TYPHIMURIUM, Strain/Indicator: TA1535, Metabolic Activation: HAMSTER, LIVER, S-9, AROCLOR 1254 (10%), Method: PREINCUBATION) was “inactive; negative” and the mutagenic call (Test System: AMES SALMONELLA TYPHIMURIUM, Strain/Indicator: TA1535, Metabolic Activation: HAMSTER, LIVER, S-9, AROCLOR 1254, Method: PREINCUBATION) was “inactive; negative”. The mutagenic call (Test System: AMES SALMONELLA TYPHIMURIUM, Strain/Indicator: TA1535, Metabolic Activation: NONE, Method: PREINCUBATION) was “inactive; negative”, the mutagenic call (Test System: AMES SALMONELLA TYPHIMURIUM, Strain/Indicator: TA1535, Metabolic Activation: RAT, LIVER, S-9, AROCLOR 1254 (10%), Method: PREINCUBATION) was “inactive; negative” and the mutagenic call (Test System: AMES SALMONELLA TYPHIMURIUM, Strain/Indicator: TA1535, Metabolic Activation: RAT, LIVER, S-9, AROCLOR 1254, Method: PREINCUBATION) was “inactive; negative”. The mutagenic call (Test System: AMES SALMONELLA TYPHIMURIUM, Strain/Indicator: TA1537, Metabolic Activation: HAMSTER, LIVER, S-9, AROCLOR 1254 (10%), Method: PREINCUBATION) was “inactive; negative”, the mutagenic call (Test System: AMES SALMONELLA TYPHIMURIUM, Strain/Indicator: TA1537, Metabolic Activation: NONE, Method: PREINCUBATION) was “inactive; negative” and the mutagenic call (Test System: AMES SALMONELLA TYPHIMURIUM, Strain/Indicator: TA1537, Metabolic Activation: RAT, LIVER, S-9, AROCLOR 1254 (10%), Method: PREINCUBATION) was “inactive; negative”. The mutagenic call (Test System: MOUSE LYMPHOMA, Strain/Indicator: L5178Y (TK+/TK-), Metabolic Activation: NONE, Method: SUSPENSION/PLATE) was “active; positive”.
`Cc1ccc2ncccc2c1` was tested, and the mutagenic call (Test System: AMES SALMONELLA TYPHIMURIUM, Strain/Indicator: TA98, Metabolic Activation: HAMSTER, LIVER, S-9, AROCLOR 1254 (30%), Method: PREINCUBATION) was “active; positive”, the mutagenic call [1] was “inactive; negative” and the mutagenic call (Test System: AMES SALMONELLA TYPHIMURIUM, Strain/Indicator: TA98, Metabolic Activation: RAT, LIVER, S-9, AROCLOR 1254 (5 OR 10%), Method: PREINCUBATION) was “inactive; negative”. The mutagenic call (Test System: AMES SALMONELLA TYPHIMURIUM, Strain/Indicator: TA100, Metabolic Activation: HAMSTER, LIVER, S-9, AROCLOR 1254 (30%), Method: PREINCUBATION) was “active; positive”, the mutagenic call [8] was “inactive; negative” and the mutagenic call (Test System: AMES SALMONELLA TYPHIMURIUM, Strain/Indicator: TA100, Metabolic Activation: RAT, LIVER, S-9, AROCLOR 1254 (30%), Method: PREINCUBATION) was “active; positive”. For the same compound, the mutagenic call (Test System: AMES SALMONELLA TYPHIMURIUM, Strain/Indicator: TA100, Metabolic Activation: RAT, LIVER, S-9, PHENOBARBITAL AND 5,6-BENZOFLAVONE, Method: PREINCUBATION) was “active; positive”, the mutagenic call (Test System: AMES SALMONELLA TYPHIMURIUM, Strain/Indicator: TA100, Metabolic Activation: RAT, LIVER, S-9, PHENOBARBITAL AND 5,6-NAPHTHOFLAVONE, Method: PREINCUBATION) was “active; positive” and the mutagenic call (Test System: AMES SALMONELLA TYPHIMURIUM, Strain/Indicator: TA100, Metabolic Activation: RAT, LIVER, S-9, Method: PREINCUBATION) was “active; positive”. The mutagenic call (Test System: UDS RODENT HEPATOCYTES, Strain/Indicator: THY INCORP (NON-S-PHASE), Metabolic Activation: NONE, Method: AUTORADIOGRAPHY) was “inactive; negative”.
`Nc1cccc2nc3c(N)cccc3nc12` was tested, and the mutagenic call [1] was “active; positive” and the mutagenic call [2] was “inactive; negative”.
With `O=C(CCl)CCl` the mutagenic call [4] was “inactive; negative”, the mutagenic call [3] was “active; positive” and the mutagenic call [5] was “active; positive”. For the same compound, the mutagenic call (Test System: AMES SALMONELLA TYPHIMURIUM, Strain/Indicator: TA100, Metabolic Activation: RAT, LIVER, S-9, AROCLOR 1254, Method: FLUCTUATION TEST) was “inactive; negative”, the mutagenic call [6] was “active; positive” and the mutagenic call [7] was “active; positive”. The mutagenic call (Test System: AMES SALMONELLA TYPHIMURIUM, Strain/Indicator: TA1535, Metabolic Activation: RAT, LIVER, S-9, AROCLOR 1254, Method: STANDARD PLATE) was “active; positive”.
